Experimental data from the supplement of paper PMC10331698.
± gives the standard deviation of the averaged measurements.

How the values were obtained:
Assay in all cases: level (log10 ratio to DMSO vehicle control); higher = higher biomarker level / cell amount than vehicle control
[1] = compound: C=C(C)C(=O)OCCC(F)(F)C(F)(F)C(F)(F)C(F)(F)C(F)(F)C(F)(F)F [6:2 Fluorotelomer methacrylate]; settings: in DMSO
Experimental: (§1)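 BioMAP Diversity Plus panel of 12 human primary cell co-culture systems (3C, 4H, LPS, SAg, BT, BF4T, BE3C, CASM3C, HDF3CGF, KF3CT, MyoF, Mphg). Compounds were added 1 h before stimulation and left for 24 h (MyoF 48 h; BT 72 h for soluble read-outs or 6 d for IgG). Biomarkers were read by ELISA, cytotoxicity by SRB, PBMC viability and proliferation by Alamar Blue. Each well value was divided by the mean of 8 DMSO control wells on the same plate and log10 transformed; duplicate blinded samples were tested at 4 concentrations.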

[2] = compound: C=CC(=O)OCC(F)(F)C(F)(F)C(F)(F)COC(=O)C=C [1H,1H,5H,5H-Perfluoro-1,5-pentanediol diacrylate]; settings: 6700 nM; in DMSO
Experimental: as §1

[3] = compound: COC(=O)C(F)(F)C(F)(F)OC(F)(C(F)(F)F)C(F)(F)OC(F)=C(F)F [Methyl perfluoro(3-(1-ethenyloxypropan-2-yloxy)propanoate)]; settings: in DMSO
Experimental: as §1

[4] = compound: FC(F)(F)C(F)(F)C(F)(F)C(F)(F)C(F)(F)C(F)(F)C(F)(F)I [1-Iodopentadecafluoroheptane]; settings: in DMSO
Experimental: as §1

[5] = compound: FC(F)(F)C(F)(F)C(F)(F)C(F)(F)C(F)(F)C(F)(F)CC1CO1 [3-(Perfluorohexyl)-1,2-epoxypropane]; settings: in DMSO
Experimental: as §1

[6] = compound: FC(F)(F)C(F)(F)C(F)(F)CC1CO1 [1H,1H-Heptafluorobutyl epoxide]; settings: in DMSO
Experimental: as §1

Heptafluorobutyl iodide = compound: FC(F)(F)C(F)(F)C(F)(F)CI [Heptafluorobutyl iodide]; settings: in DMSO
Experimental: as §1

[7] = compound: FC(F)(F)C(F)(F)CNCC(F)(F)C(F)(F)F [Bis(1H,1H-perfluoropropyl)amine]; settings: in DMSO
Experimental: as §1

Octafluoroadipamide = compound: NC(=O)C(F)(F)C(F)(F)C(F)(F)C(F)(F)C(N)=O [Octafluoroadipamide]; settings: in DMSO
Experimental: as §1

Nonafluoropentanamide = compound: NC(=O)C(F)(F)C(F)(F)C(F)(F)C(F)(F)F [Nonafluoropentanamide]; settings: in DMSO
Experimental: as §1

[8] = compound: NC(=O)C(F)(F)C(F)(F)C(F)(F)C(F)F; settings: in DMSO
Experimental: as §1

[9] = compound: NS(=O)(=O)C(F)(F)C(F)(F)C(F)(F)C(F)(F)C(F)(F)C(F)(F)F [Perfluorohexanesulfonamide]; settings: in DMSO
Experimental: as §1

[10] = compound: O=C(O)C(F)(F)C(F)(F)C(F)(F)C(F)(F)C(F)(F)C(F)(F)C(F)(F)C(F)(F)C(F)(F)C(F)F [11-H-Perfluoroundecanoic acid]; settings: in DMSO
Experimental: as §1

[11] = compound: O=C(O)C=CC(F)(C(F)(F)F)C(F)(F)F [3-(Perfluoroisopropyl)-2-propenoic acid]; settings: in DMSO
Experimental: as §1

[12] = compound: O=S(=O)(Cl)C(F)(F)C(F)(F)C(F)(F)C(F)(F)C(F)(F)C(F)(F)C(F)(F)C(F)(F)F [Perfluoro-1-octanesulfonyl chloride]; settings: in DMSO
Experimental: as §1

[13] = compound: O=S(=O)(F)C(F)(F)C(F)(F)C(F)(F)C(F)(F)C(F)(F)C(F)(F)C(F)(F)C(F)(F)F [Perfluorooctanesulfonyl fluoride]; settings: in DMSO
Experimental: as §1

[14] = compound: O=S(=O)(O)C(F)(F)C(F)(F)C(F)(F)C(F)(F)C(F)(F)C(F)(F)C(F)(F)C(F)(F)C(F)(F)C(F)(F)F [Sodium perfluorodecanesulfonate]; settings: in DMSO
Experimental: as §1

[15] = compound: O=S(=O)(O)CCC(F)(F)C(F)(F)C(F)(F)C(F)(F)C(F)(F)C(F)(F)F [6:2 Fluorotelomer sulfonic acid]; settings: in DMSO
Experimental: as §1

Hexafluoroamylene glycol = compound: OCC(F)(F)C(F)(F)C(F)(F)CO [Hexafluoroamylene glycol]; settings: in DMSO
Experimental: as §1

In the case of BF4T:CD54/ICAM-1, the “level (log10)” value ([1]; 6700 nM) is reported as -0.019 ± 0.0042, the “level (log10)” value ([1]; 20000 nM) is reported as -0.0045 ± 0.026 and the “level (log10)” value ([1]; 60000 nM) is reported as -0.0195 ± 0.0035. For the same test system, the “level (log10)” value [2] was -0.084 ± 0.011, the “level (log10)” value ([3]; 6700 nM) was -0.0215 ± 0.011 and the “level (log10)” value ([3]; 20000 nM) was -0.0265 ± 0.0064. The “level (log10)” value ([4]; 6700 nM) was 0.004 ± 0.011, the “level (log10)” value ([4]; 20000 nM) was -0.0025 ± 0.013 and the “level (log10)” value ([5]; 6700 nM) was -0.002 ± 0.0057. For the same test system, the “level (log10)” value ([5]; 20000 nM) was 0.0025 ± 0.0021, the “level (log10)” value ([5]; 60000 nM) was 0.007 and the “level (log10)” value ([6]; 6700 nM) was -0.027 ± 0.016. For the same test system, the “level (log10)” value ([6]; 20000 nM) was -0.003 ± 0.035, the “level (log10)” value ([6]; 60000 nM) was -0.0245 ± 0.018 and the “level (log10)” value (Heptafluorobutyl iodide; 6700 nM) was -0.012 ± 0.011. The “level (log10)” value (Heptafluorobutyl iodide; 20000 nM) was -0.008 ± 0.016, the “level (log10)” value (Heptafluorobutyl iodide; 60000 nM) was -0.003 ± 0.031 and the “level (log10)” value ([7]; 6700 nM) was -0.0035 ± 0.0021. The “level (log10)” value ([7]; 20000 nM) was -0.013 ± 0.0014, the “level (log10)” value ([7]; 60000 nM) was 0.001 ± 0.04 and the “level (log10)” value (Octafluoroadipamide; 6700 nM) was -0.015 ± 0.023. The “level (log10)” value (Octafluoroadipamide; 20000 nM) was -0.017 ± 0.021, the “level (log10)” value (Octafluoroadipamide; 60000 nM) was 0.009 ± 0.016 and the “level (log10)” value (Nonafluoropentanamide; 6700 nM) was -0.003 ± 0.0028. For the same test system, the “level (log10)” value (Nonafluoropentanamide; 20000 nM) was -0.0005 ± 0.00071, the “level (log10)” value (Nonafluoropentanamide; 60000 nM) was 0.007 ± 0.0099 and the “level (log10)” value ([8]; 6700 nM) was -0.0105 ± 0.015. The “level (log10)” value ([8]; 20000 nM) was -0.0095 ± 0.022, the “level (log10)” value ([8]; 60000 nM) was -0.0045 ± 0.0021 and the “level (log10)” value ([9]; 6700 nM) was -0.015 ± 0.0014. The “level (log10)” value ([9]; 20000 nM) was -0.0375 ± 0.0064, the “level (log10)” value ([9]; 60000 nM) was -0.0645 ± 0.0078 and the “level (log10)” value ([10]; 6700 nM) was -0.0375 ± 0.0021. For the same test system, the “level (log10)” value ([10]; 20000 nM) was -0.104 ± 0.016, the “level (log10)” value ([11]; 6700 nM) was 0.007 ± 0.0042 and the “level (log10)” value ([11]; 20000 nM) was -0.0005 ± 0.025. For the same test system, the “level (log10)” value ([11]; 60000 nM) was 0.011 ± 0.0028, the “level (log10)” value ([12]; 6700 nM) was -0.011 ± 0.0085 and the “level (log10)” value ([12]; 20000 nM) was -0.023. For the same test system, the “level (log10)” value ([12]; 60000 nM) was -0.084, the “level (log10)” value ([13]; 6700 nM) was -0.002 ± 0.0014 and the “level (log10)” value ([13]; 20000 nM) was -0.006. The “level (log10)” value ([13]; 60000 nM) was -0.0045 ± 0.0021, the “level (log10)” value ([14]; 1500 nM) was -0.019 ± 0.0071 and the “level (log10)” value ([14]; 4400 nM) was -0.031 ± 0.016. For the same test system, the “level (log10)” value ([14]; 13000 nM) was -0.014 ± 0.014, the “level (log10)” value ([14]; 40000 nM) was -0.0105 ± 0.025 and the “level (log10)” value ([15]; 6700 nM) was -0.0115 ± 0.00071. The “level (log10)” value ([15]; 20000 nM) was -0.015 ± 0.021, the “level (log10)” value ([15]; 60000 nM) was -0.0095 ± 0.018 and the “level (log10)” value (Hexafluoroamylene glycol; 6700 nM) was -0.0145 ± 0.005. For the same test system, the “level (log10)” value (Hexafluoroamylene glycol; 20000 nM) was -0.0045 ± 0.015 and the “level (log10)” value (Hexafluoroamylene glycol; 60000 nM) was 0.009 ± 0.014.
BF4T:CXCL8/IL-8 was tested, and the “level (log10)” value ([1]; 6700 nM) was 0.032 ± 0.061, the “level (log10)” value ([1]; 20000 nM) was 0.028 ± 0.037 and the “level (log10)” value ([1]; 60000 nM) was 0.0435 ± 0.033. The “level (log10)” value [2] was -0.0315 ± 0.037, the “level (log10)” value ([3]; 6700 nM) was 0.0395 ± 0.016 and the “level (log10)” value ([3]; 20000 nM) was 0.095 ± 0.0099. For the same test system, the “level (log10)” value ([4]; 6700 nM) was 0.0515 ± 0.079, the “level (log10)” value ([4]; 20000 nM) was 0.0425 ± 0.044 and the “level (log10)” value ([5]; 6700 nM) was 0.013 ± 0.02. For the same test system, the “level (log10)” value ([5]; 20000 nM) was -0.02 ± 0.028, the “level (log10)” value ([5]; 60000 nM) was 0.0075 ± 0.0064 and the “level (log10)” value ([6]; 6700 nM) was 0.023 ± 0.041. For the same test system, the “level (log10)” value ([6]; 20000 nM) was 0.0165 ± 0.03, the “level (log10)” value ([6]; 60000 nM) was 0.0325 ± 0.05 and the “level (log10)” value (Heptafluorobutyl iodide; 6700 nM) was 0.0085 ± 0.029. The “level (log10)” value (Heptafluorobutyl iodide; 20000 nM) was 0.061 ± 0.11, the “level (log10)” value (Heptafluorobutyl iodide; 60000 nM) was 0.0505 ± 0.063 and the “level (log10)” value ([7]; 6700 nM) was -0.0295 ± 0.013. The “level (log10)” value ([7]; 20000 nM) was -0.027 ± 0.0028, the “level (log10)” value ([7]; 60000 nM) was -0.0105 ± 0.021 and the “level (log10)” value (Octafluoroadipamide; 6700 nM) was -0.0185 ± 0.0064. For the same test system, the “level (log10)” value (Octafluoroadipamide; 20000 nM) was -0.022 ± 0.011, the “level (log10)” value (Octafluoroadipamide; 60000 nM) was -0.003 ± 0.044 and the “level (log10)” value (Nonafluoropentanamide; 6700 nM) was 0.055 ± 0.021. The “level (log10)” value (Nonafluoropentanamide; 20000 nM) was 0.028 ± 0.057, the “level (log10)” value (Nonafluoropentanamide; 60000 nM) was 0.0235 ± 0.088 and the “level (log10)” value ([8]; 6700 nM) was 0 ± 0.0071. The “level (log10)” value ([8]; 20000 nM) was -0.0105 ± 0.005, the “level (log10)” value ([8]; 60000 nM) was -0.009 ± 0.0071 and the “level (log10)” value ([9]; 6700 nM) was -0.031 ± 0.052. For the same test system, the “level (log10)” value ([9]; 20000 nM) was -0.051 ± 0.034, the “level (log10)” value ([9]; 60000 nM) was -0.073 ± 0.02 and the “level (log10)” value ([10]; 6700 nM) was 0.0575 ± 0.019. The “level (log10)” value ([10]; 20000 nM) was 0.0005 ± 0.026, the “level (log10)” value ([11]; 6700 nM) was 0.0055 ± 0.012 and the “level (log10)” value ([11]; 20000 nM) was -0.0015 ± 0.0064. The “level (log10)” value ([11]; 60000 nM) was 0.001 ± 0.021, the “level (log10)” value ([12]; 6700 nM) was 0.002 ± 0.024 and the “level (log10)” value ([12]; 20000 nM) was 0.0225 ± 0.012. The “level (log10)” value ([12]; 60000 nM) was -0.009 ± 0.018, the “level (log10)” value ([13]; 6700 nM) was 0.0175 ± 0.011 and the “level (log10)” value ([13]; 20000 nM) was 0.015 ± 0.0028. The “level (log10)” value ([13]; 60000 nM) was 0.0355 ± 0.005, the “level (log10)” value ([14]; 1500 nM) was 0.0305 ± 0.069 and the “level (log10)” value ([14]; 4400 nM) was 0.034 ± 0.0099. For the same test system, the “level (log10)” value ([14]; 13000 nM) was 0.0995 ± 0.021, the “level (log10)” value ([14]; 40000 nM) was 0.136 ± 0.0057 and the “level (log10)” value ([15]; 6700 nM) was 0.069 ± 0.058. For the same test system, the “level (log10)” value ([15]; 20000 nM) was 0.0625 ± 0.044, the “level (log10)” value ([15]; 60000 nM) was 0.0805 ± 0.057 and the “level (log10)” value (Hexafluoroamylene glycol; 6700 nM) was -0.018. The “level (log10)” value (Hexafluoroamylene glycol; 20000 nM) was -0.002 ± 0.0014 and the “level (log10)” value (Hexafluoroamylene glycol; 60000 nM) was 0.0175 ± 0.033.
